From patent US11882828B2, “Mosquito vector control compositions, methods and products utilizing same” (priority 2015, dated 2024)

How the values were obtained:
[1] = tested on: An. stephensi; assay: Example B4: cross resistance study, 6-well plate; assay type: in vivo; settings: for Knockdown: after 60 minutes, An. stephensi
Experimental: (§1) In each study, a set of plates were infested with a known insecticide susceptible strain of mosquitoes from the same genera as the resistant strains.
(§2) Assessment of the knockdown after 60 minutes and mortality after 24 hours was carried out. Each treatment was replicated a minimum of four times, with the mean knockdown or mortality recorded.
(§3) A comparison of the knockdown and mortality of the resistant strain of mosquitoes was made to that of the susceptible to identify evidence of cross resistance.

[2] = tested on: An. Gambiae Kisumu rdl; assay: Example B4: cross resistance study, 6-well plate; assay type: in vivo; settings: for Knockdown: after 60 minutes, Kisumu rdl
Experimental: as §1, §2, §3

[3] = tested on: An. Arabiensis Moz sus; assay: Example B4: cross resistance study, 6-well plate; assay type: in vivo; settings: for Knockdown: after 60 minutes, Moz sus
Experimental: as §1, §2, §3

[4] = tested on: Ae. aegypti Caymon; assay: Example B4: cross resistance study, 6-well plate; assay type: in vivo; settings: for Knockdown: after 60 minutes, Caymon
Experimental: as §1, §2, §3

[5] = tested on: Ae. Aegypti New Orleans; assay: Example B4: cross resistance study, 6-well plate; assay type: in vivo; settings: for Knockdown: after 60 minutes, New Orleans
Experimental: as §1, §2, §3

[6] = tested on: An. Gambiae Tiassalé; assay: Example B4: cross resistance study, 6-well plate; assay type: in vivo; settings: for Knockdown: after 60 minutes, Tiassalé
Experimental: as §1, §2, §3

[7] = tested on: An. Gambiae Kisumu sus; assay: Example B4: cross resistance study, 6-well plate; assay type: in vivo; settings: for Knockdown: after 60 minutes, Kisumu sus
Experimental: as §1, §2, §3

[8] = tested on: An. stephensi; assay: Example B5: bottle based cross resistance study (CDC bottle assay); assay type: in vivo; settings: for Knockdown (%) at 15 mins / Knockdown (%) at 60 mins: 20 ppm, bottle, An. stephensi; for mortality at 20 ppm: Anopheles stephensi
Experimental: (§4) Based on the “CDC bottle assay” (described at http://www.cdc.gov/malaria/resources/pdf/fsp/ir_manual/ir_cdc_bioassay_en.pdf) 1 ml of ethanol containing a test compound at a defined concentration was added to a 250 ml glass bottle and the bottles were placed on a rolling table to coat the inner surfaces as the solvent evaporated. Once dry, twenty five non-blood fed adult female mosquitoes of the appropriate species and strains (each three day old) were aspirated from the stock culture and gently blown into the exposure bottles. The lid of the bottle was replaced and the bottle placed upright out of direct sun light under standard culture conditions, nominally 28C and 60-80% relative humidity.
(§5) A stopwatch was started, and the assessment of the knock-down were made after 15 minutes and 60 minutes. A mosquito was said to be knocked down if it was unable to stand, following the CDC definition. The bottles were replaced in an upright position when not being assessed.
(§6) After one hour the mosquitoes were carefully removed from the bottle with an aspirator and placed in a recovery cup. The mosquitoes were supplied with a 10% sucrose solution on a cotton wool bung, and stored under culture conditions. Assessments of the mortality were made after 24 hours.
(§7) Each treatment was replicated a minimum of four times, with the mean knockdown or mortality recorded. In each study, a set of bottles was infested with a known insecticide susceptible strain of mosquitoes from the same genera as the resistant strains.

[9] = tested on: FUMOZ; assay: as above; assay type: in vivo; settings: Anopheles funestus, 24 h, 25 ppm, after 24 hours, FUMOZ
Experimental: as §4, §5, §6, §7

[10] = tested on: An. Gambiae Tiassalé; assay: as above; assay type: in vivo; settings: for Knockdown (%) at 15 mins / Knockdown (%) at 60 mins: 20 ppm, bottle, Tiassalé; for mortality at 20 ppm: Anopheles gambiae
Experimental: as §4, §5, §6, §7

[11] = tested on: An. Gambiae Kisumu sus; assay: as above; assay type: in vivo; settings: for mortality at 20 ppm / mortality at 25 ppm: Anopheles gambiae; for mortality at 25 ppm: 24 h
Experimental: as §4, §5, §6, §7

[12] = tested on: VK7; assay: as above; assay type: in vivo; settings: Anopheles coluzzii, 24 h, after 24 hours
Experimental: as §4, §5, §6, §7

[13] = tested on: Aedes aegypti; assay: Example B7: evaluation of insecticide impregnated polymer surfaces; assay type: in vivo; settings: AI content 2 wt %, polymer 4 to 6 weeks old; for mortality: 24 hours after exposure; for knock-down: after one hour
Description: (§8) Preparation of polymeric sheets: Certain methoxyacrylate were Impregnated into three polymers: LDPE (low density polyethylene), HDPE (high density polyethylene) and PP (polypropylene) in different concentrations by mixing the respective polymer with a compound at high temperatures and the resultant polymeric material were then mould into thin discs or plaques.
(§9) Twenty four hours prior to the relevant assessment intervals, three to five day old non-blood fed adult mosquitoes were taken from the culture and lightly anaesthetised with carbon dioxide. Ten females were selected and placed in a 250 ml plastic cup, retained with a net lid, provided with a 10% sucrose solution soaked in a cotton wool bung and held under culturing environmental conditions.
(§10) After twenty four hours, impregnated polymer sheets (measuring about 150 mm in diameter and about 0.1 mm in thickness) were removed from storage and wrapped around the glazed side of an 11 cm ceramic tile and held in place with an elastic band. A cup of the pre-selected mosquitoes were again lightly anaesthetised with carbon dioxide and transferred from the holding cup to the base of a 9 cm plastic Petri dish. The relevant impregnated polymer sheet was placed over the Petri dish and held in place with an elastic band. Once the mosquitoes had recovered from the anaesthetic, ca. 1 minute, the impregnated polymer sheet was placed on a holding rack, such that treated side was at an angle of […] to the horizontal.
(§11) After one hour an assessment of mosquito knockdown was made. A mosquito was said to be knocked down if it was unable to right itself once it had fallen over. The mosquitoes were lightly anaesthetised again, and removed from the Petri dish exposure chamber and returned to the holding cups. The mosquitoes were supplied with a 10% sucrose solution soaked in a cotton wool bung and held under culturing environmental conditions. An assessment of mortality was made 24 hours after exposure. A mosquito was said to be dead if it is unable to right itself once it had fallen over.

[14] = tested on: Anopheles stephensi; assay: as above; assay type: in vivo; settings: AI content 2 wt %; for mortality: 24 hours after exposure; for knock-down: after one hour
Description: as §8, §9, §10, §11

[15] = tested on: Aedes aegypti (Yellow fever mosquito); assay: whole plant or invertebrate; settings: Aedes aegypti
Experimental: […] Once the deposits were dry, five non-blood fed adult female Aedes aegypti (between two to five days old) were added to each well, and sustained with a 10% sucrose solution in a cotton wool plug. Assessment of the knockdown after 1 hour, and mortality after 48 hours was carried out.
(§12) In case of multiple tests, the mean value is reported.

[16] = tested on: An. Arabiensis Ndjamina; assay: Example B4: cross resistance study, 6-well plate; assay type: in vivo
Experimental: as §1, §2, §3

[17] = tested on: Aedes aegypti; assay: whole plant or invertebrate; settings: Aedes aegypti, 48 h
Experimental: (§13) The individual wells of six (6) well tissue culture plates were treated with 250 μl of an ethanol solution containing a test compound at a defined concentration. Once the deposits were dry, ten non-blood fed adult female Aedes aegypti or Anopheles stephensi (each between two to five day old) were added to each well, and sustained with a 10% sucrose solution in a cotton wool plug.
(§14) Assessment of the mortality was carried out at 48 hours.
(§15) Each treatment was replicated twice, with the mean mortality recorded.

[18] = tested on: Anopheles stephensi; assay: whole plant or invertebrate; settings: Anopheles stephensi, 48 h
Experimental: as §13, §14, §15

[19] = tested on: Anopheles stephensi (Indian malaria mosquito); assay: whole plant or invertebrate; settings: Anopheles stephensi
Experimental: […] Once the deposits were dry, five non-blood fed adult female Anopheles stephensi (between two to five days old) were added to each well, and sustained with a 10% sucrose solution in a cotton wool plug. Assessment of the knockdown after 1 hour, and mortality after 48 hours was carried out.
as §12

## CC1(C)C(C=C(Cl)Cl)C1C(=O)OCc1cccc(Oc2ccccc2)c1 (stereo not drawn) [Permethrin, reference compound]
[1]; 2.50 ppm
  Knockdown: 85%
[1]; Anopheles stephensi, 24 h
  mortality at 2.5 ppm: 100%
[2]; 2.50 ppm
  Knockdown: 100%
[2]; Anopheles gambiae, 24 h
  mortality at 2.5 ppm: 100%
[3]; 2.50 ppm
  Knockdown: 75%
[3]; Anopheles arabiensis, 24 h
  mortality at 2.5 ppm: 100%
[4]; 2.50 ppm
  Knockdown: 0%
[4]; Aedes aegypti, 24 h
  mortality at 2.5 ppm: 45%
[5]; 2.50 ppm
  Knockdown: 91%
[5]; Aedes aegypti, 24 h
  mortality at 2.5 ppm: 100%
[6]; 2.50 ppm
  Knockdown: 5%
[6]; Anopheles gambiae, 24 h
  mortality at 2.5 ppm: 14%
[7]; 2.50 ppm
  Knockdown: 100%
[7]; Anopheles gambiae, 24 h
  mortality at 2.5 ppm: 100%
[8]
  Knockdown (%) at 15 mins: 97%
  Knockdown (%) at 60 mins: 100%
  mortality at 20 ppm: 100%
[9]; Table B5b
  mortality at 25 ppm: 24%
[9]; Table B5c
  mortality at 25 ppm: 46%
[10]
  Knockdown (%) at 15 mins: 50%
  Knockdown (%) at 60 mins: 99%
  mortality at 20 ppm: 85%
[11]; 20 ppm, bottle, Kisumu sus
  Knockdown (%) at 15 mins: 100%
  Knockdown (%) at 60 mins: 100%
[11]; 20 ppm, bottle, one hour exposure, after 24 hours, Kisumu sus
  mortality at 20 ppm: 100%
[11]; Table B5b, after 24 hours, Kisumu sus
  mortality at 25 ppm: 99%
[11]; Table B5c, after 24 hours, Kisumu sus
  mortality at 25 ppm: 100%
[12]; Table B5b
  mortality at 25 ppm: 3%
[12]; Table B5c
  mortality at 25 ppm: 4%
[13]; HDPE
  mortality: 97%
  knock-down: 100%
[13]; LDPE
  mortality: 100%
  knock-down: 100%
[13]; PP
  mortality: 80%
  knock-down: 87%
[14]; HDPE, polymer 4 to 6 weeks old
  mortality: 70%
  knock-down: 100%
[14]; HDPE, polymer 6 to 8 weeks old
  mortality: 97%
  knock-down: 100%
[14]; LDPE, polymer 4 to 6 weeks old
  mortality: 100%
  knock-down: 100%
[14]; LDPE, polymer 6 to 8 weeks old
  mortality: 100%
  knock-down: 100%
[14]; PP, polymer 4 to 6 weeks old
  mortality: 23%
  knock-down: 100%
[14]; PP, polymer 6 to 8 weeks old
  mortality: 67%
  knock-down: 100%

## CCC(=N\OC)/C(C)=N/OCc1ccccc1/C(=C\OC)C(=O)OC [Compound 4, Methyl(E)-3-methoxy-2-[2-[[(E)-[(2E)-2-methoxyimino-1-methyl-butylidene]amino]-oxymethyl]phenyl]prop-2-enoate]
[15]; 1 h, read-out: Knockdown
  pest or weed control at 20 ppm: 100%
[15]; 48 h
  mortality at 20 ppm: 100%
[16]; 2.00 ppm, after 60 minutes, Ndjamina
  Knockdown: 100%
[16]; Anopheles arabiensis, 24 h
  mortality at 2 ppm: 100%
[1]; 2.00 ppm
  Knockdown: 95%
[1]; Anopheles stephensi, 24 h
  mortality at 2 ppm: 100%
[2]; 2.00 ppm
  Knockdown: 30%
[2]; Anopheles gambiae, 24 h
  mortality at 2 ppm: 100%
[3]; 2.00 ppm
  Knockdown: 0%
[3]; Anopheles arabiensis, 24 h
  mortality at 2 ppm: 95%
[4]; 2.00 ppm
  Knockdown: 45%
[4]; Aedes aegypti, 24 h
  mortality at 2 ppm: 90%
[5]; 2.00 ppm
  Knockdown: 75%
[5]; Aedes aegypti, 24 h
  mortality at 2 ppm: 100%
[6]; 2.00 ppm
  Knockdown: 70%
[6]; Anopheles gambiae, 24 h
  mortality at 2 ppm: 100%
[7]; 2.00 ppm
  Knockdown: 67%
[7]; Anopheles gambiae, 24 h
  mortality at 2 ppm: 95%
[8]
  Knockdown (%) at 15 mins: 10%
  Knockdown (%) at 60 mins: 100%
  mortality at 20 ppm: 80%
[10]
  Knockdown (%) at 15 mins: 17%
  Knockdown (%) at 60 mins: 96%
  mortality at 20 ppm: 77%
[11]; 20 ppm, bottle, Kisumu sus
  Knockdown (%) at 15 mins: 48%
  Knockdown (%) at 60 mins: 100%
[11]
  mortality at 20 ppm: 100%
[13]; HDPE
  knock-down: 53%
[13]; LDPE
  knock-down: 63%
[13]; PP
  knock-down: 63%
[14]; HDPE, polymer 4 to 6 weeks old
  knock-down: 93%
[14]; HDPE, polymer 6 to 8 weeks old
  knock-down: 77%
[14]; LDPE, polymer 4 to 6 weeks old
  knock-down: 87%
[14]; LDPE, polymer 6 to 8 weeks old
  knock-down: 70%
[14]; PP, polymer 4 to 6 weeks old
  knock-down: 100%
[14]; PP, polymer 6 to 8 weeks old
  knock-down: 90%
[17]
  mortality at 5 ppm: 78%
[18]
  mortality at 5 ppm: 98%
[19]; 1 h, read-out: Knockdown
  pest or weed control at 20 ppm: 80%
[19]; 48 h
  mortality at 20 ppm: 100%
